Assay results reported in patent publication US8236756B2, “Prodrugs cleavable by CD26” (Consejo Superior de Investigaciones Clentificas (CSIC), priority 2003, dated 2012).

Molecular target: T1, purified CD26 (Homo sapiens, UniProt P27487)
T1 construct: made in house
Assay: Conversion of peptide prodrugs to parent compound by purified CD26 (HPLC)
Format: biochemical
Conditions: for Conversion % to parent compound by purified CD26, 1 h / Conversion % to parent compound by purified CD26, 4 h / Conversion % to parent compound by purified CD26, 24 h: Table 1
Procedure: To reveal whether CD26 recognizes such synthetic di/tripeptide derivatives of lipophilic nucleoside analogues as a substrate, 50 μM CAM-405 or CAM-431 was exposed to 5.7 mUnits of purified CD26, and the conversion of CAM-405 or CAM-431 to respectively CAM-212 or CAM-403 (Val-NAP-TSAO) was recorded in function of incubation time by HPLC analysis. […] Within the first 10 min of the reaction, at least 20% of CAM-405 had been converted to CAM-212, fifty percent of the TSAO dipeptide derivative was converted to CAM-212 within 30 min of the reaction and ˜67% of CAM-405 was hydrolyse after 60 min. Thus, the reaction rate started already to slow down after the first 10 min of drug exposure (FIG. 2). Most likely, the release of the reaction product Val-Pro dose-dependently feed-back inhibited the CD26-catalysed dipeptidyl-peptidase reaction. […] Thus, in the presence of 50 μM CAM-405, hydrolysis of 50% of CAM-405 to CAM-212 results in the appearance of 25 μM Val-Pro, that is a concentration that (feed-back) inhibits the CD26 reaction by ˜50%. These findings explain why the CD26-catalysed reaction levels-off shortly after the start of the exposure of the drug to CD26. […] Thus, a further level of modulation of the rate of prodrug release can be introduced by choosing a dipeptide moiety that competes for the active site of CD26, until the dipeptide has diffused from the tissue wherein CD26 is present. The inhibitory activity of any dipeptide can be evaluated by the above mentioned assay.
The conversion rate in function of time is given in Table 1 for NAP-TSAO-dipeptides where the dipeptide consists of: Val-Pro, Val-D-Pro, Asp-Pro, Lys-Pro, Tyr-Pro, Gly-Pro, Val-4-hydroxyPro, Gly-3,4-dihydroxyPro, but also Val-Gly, Val-Ala, Val-Leu and Val-Phe. It is clear that the conversion rate to the parent NAP-TSAO differs depending the nature of the dipeptide. Also, when the terminal amine of the dipeptide has been blocked by a lipophilic group (i.e. methyl, Z or Fmoc), the prodrug looses measurable substrate activity for CD26.
The conversion rate in function of time is given in Table 2 for tetrapeptide NAP-TSAO compounds where the tetrapeptide consists of: Val-Pro-Val-Pro [SEQ ID no:6] (CAM 467), Val-Ala-Val-Pro [SEQ ID no:7] (CAM 473) or Lys-Pro-Asp-Pro [SEQ ID no:8] (CAM 477). […] Only traces of dipeptide prodrug (CAM 405) is seen as intermediate in the conversion of the tetrapeptide CAM 473 to NAP-TSAO.
All enzyme activity assays were performed in Eppendorf tubes on a heating block at 37° C. To each tube were added 32 μl CD26 (at a final concentration of 1.5 milliUnits) or 10 μl foetal bovine serum (BS) (final concentration: 2.5% BS in PBS; preheated at 56° C. for 30 min) or 10 μl human serum (HS) (final concentration: 2.5% HS in PBS), 40 μl of appropriate concentrations of inhibitor (Diprotin A) solution in PBS (for the exact concentrations, see the legend to FIG. 5), CAM-405 (the substrate of the reaction) at […] (final concentration) and PBS to reach a total volume of 400 μl. The pH of the reaction mixture was 7.5, which is virtually identical to the physiological pH of plasma. The reaction was started by the addition of the enzyme or serum and carried out at 37° C. After 5 hr, 100 μl reaction mixture was taken from the Eppendorf tube and added to 200 μl cold methanol to precipitate the proteins. After 10 min standing on ice, the contents of the tubes were centrifuged and the supernatants analysed by HPLC on a reverse phase column (RP-8, Merck Laboratories). CAM-405 was separated from CAM-212 (the product of the reaction) by a gradient of 50 mM sodium phosphate+5 mM heptane sulfonic acid pH 3.2 (Buffer A) and acetonitrile (Buffer B) as follows: Buffer A: 98%+2% Buffer B, 2 min; linear gradient to 20% Buffer. […]

[1] = Table 2, purified CD26 1.5 mUnits, 1 h
[2] = Table 2, purified CD26 1.5 mUnits, 4 h
[3] = Table 2, purified CD26 1.5 mUnits, 24 h
[4] = Table 5, purified CD26 1.5 mUnits, 1 h
[5] = Table 5, purified CD26 1.5 mUnits, 4 h
[6] = Table 5, purified CD26 1.5 mUnits, 24 h

T1 sequence (P27487 whole entry): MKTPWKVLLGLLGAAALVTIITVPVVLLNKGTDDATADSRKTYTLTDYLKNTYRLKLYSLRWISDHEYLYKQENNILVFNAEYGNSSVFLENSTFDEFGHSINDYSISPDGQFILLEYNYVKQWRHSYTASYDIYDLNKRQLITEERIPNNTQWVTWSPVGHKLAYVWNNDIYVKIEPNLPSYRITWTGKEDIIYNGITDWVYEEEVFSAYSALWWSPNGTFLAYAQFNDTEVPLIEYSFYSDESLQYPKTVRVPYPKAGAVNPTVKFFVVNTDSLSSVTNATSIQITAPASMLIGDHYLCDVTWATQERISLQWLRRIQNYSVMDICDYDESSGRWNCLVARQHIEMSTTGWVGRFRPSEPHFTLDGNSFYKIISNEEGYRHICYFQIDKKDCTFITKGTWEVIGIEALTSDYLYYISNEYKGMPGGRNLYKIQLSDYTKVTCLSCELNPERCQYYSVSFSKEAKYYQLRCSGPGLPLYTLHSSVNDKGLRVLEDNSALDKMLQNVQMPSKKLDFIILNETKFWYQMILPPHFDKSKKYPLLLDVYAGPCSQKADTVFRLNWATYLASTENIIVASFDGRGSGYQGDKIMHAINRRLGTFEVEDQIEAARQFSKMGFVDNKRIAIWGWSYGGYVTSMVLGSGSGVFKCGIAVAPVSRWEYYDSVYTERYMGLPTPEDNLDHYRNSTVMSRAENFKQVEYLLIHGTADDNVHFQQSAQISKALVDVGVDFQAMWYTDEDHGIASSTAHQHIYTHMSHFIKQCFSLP

| Molecule | Conversion % to parent compound by purified CD26, 1 h (purified CD26 1.5 mUnits, 1 h) [%] | Conversion % to parent compound by purified CD26, 4 h (purified CD26 1.5 mUnits, 4 h) [%] | Conversion % to parent compound by purified CD26, 24 h (purified CD26 1.5 mUnits, 24 h) [%] | Conversion / substrate activity with purified CD26, in words | % conversion to parent compound by purified CD26, 4 h [2] [%] | % conversion to parent compound by purified CD26, 24 h [3] [%] | other results |
| --- | --- | --- | --- | --- | --- | --- | --- |
| CNC(C(=O)N1CCCC1C(=O)NC(C(=O)NCCCn1c(=O)c(C)cn(C2OC(CO[Si](C)(C)C(C)(C)C)C3(OS(=O)(=O)C=C3N)C2O[Si](C)(C)C(C)(C)C)c1=O)C(C)C)C(C)C (stereo not drawn) [CAM-407, Me-NH-Val-Pro-Val-NHP-TSAO] | 0 | 0 | 0 | completely lacked substrate activity | – | – | – |
| Cc1cn(C2OC(CO[Si](C)(C)C(C)(C)C)C3(OS(=O)(=O)C=C3N)C2O[Si](C)(C)C(C)(C)C)c(=O)n(CCCNC(=O)[C@@H]2CCCN2C(=O)CN)c1=O (stereo partly drawn) [CAM-458, H-Gly-Pro-NAP-TSAO] | 5 | 20 | 58 | – | – | – | – |
| NH2-Val-HyPro(Bzl)-NAP-TSAO [CAM-462] | – | 0 | 0 | – | – | – | – |
| Cc1cn(C2OC(CO[Si](C)(C)C(C)(C)C)C3(OS(=O)(=O)C=C3N)C2O[Si](C)(C)C(C)(C)C)c(=O)n(CCCNC(=O)[C@@H]2CCCN2C(=O)[C@@H](N)Cc2ccc(O)cc2)c1=O (stereo partly drawn) [CAM-456, H-Tyr-Pro-NAP-TSAO] | 43 | 66 | 79 | – | – | – | – |
| Cc1cn(C2OC(CO[Si](C)(C)C(C)(C)C)C3(OS(=O)(=O)C=C3N)C2O[Si](C)(C)C(C)(C)C)c(=O)n(CCCNC(=O)C2CCCN2C(=O)C(NC(=O)C2CCCN2C(=O)C(N)C(C)C)C(C)C)c1=O (stereo not drawn) [CAM-467, H-Val-Pro-Val-Pro-NAP-TSAO] | – | – | – | quickly converted | 86 | 88 | % conversion to parent compound by purified CD26, 1 h [1]: 43% |
| Cc1cn(C2OC(CO[Si](C)(C)C(C)(C)C)C3(OS(=O)(=O)C=C3N)C2O[Si](C)(C)C(C)(C)C)c(=O)n(CCCNC(=O)C2CCCN2C(=O)C(CC(=O)O)NC(=O)C2CCCN2C(=O)C(N)CCCCN)c1=O (stereo not drawn) [CAM-477, H-Lys-Pro-Asp-Pro-NAP-TSAO] | – | – | – | clearly occurs in two steps | 6.0 | 26 | % conversion to parent compound by purified CD26, 1 h [1]: 2.1%; % conversion to dipeptide intermediate by purified CD26, 1 h (Table 2 footnote a, purified CD26 1.5 mUnits, 1 h): 88%; % conversion to dipeptide intermediate by purified CD26, 4 h (Table 2 footnote a, purified CD26 1.5 mUnits, 4 h): 86%; % conversion to dipeptide intermediate by purified CD26, 24 h (Table 2 footnote a, purified CD26 1.5 mUnits, 24 h): 74% |
| Cc1cn(C2OC(CO[Si](C)(C)C(C)(C)C)C3(OS(=O)(=O)C=C3N)C2O[Si](C)(C)C(C)(C)C)c(=O)n(CCCNC(=O)[C@@H]2CCCN2C(=O)[C@@H](N)CC(=O)O)c1=O (stereo partly drawn) [CAM-435, H-Asp-Pro-NAP-TSAO] | – | 7.9 | 30 | – | 7.9 | 30 | – |
| Cc1cn(C2OC(CO[Si](C)(C)C(C)(C)C)C3(OS(=O)(=O)C=C3N)C2O[Si](C)(C)C(C)(C)C)c(=O)n(CCCNC(=O)[C@@H]2CCCN2C(=O)[C@@H](N)CCCCN)c1=O (stereo partly drawn) [CAM-437, H-Lys-Pro-NAP-TSAO] | – | 85 | 99 | completely removed | 85 | 99 | – |
| Cc1cn(C2OC(CO[Si](C)(C)C(C)(C)C)C3(OS(=O)(=O)C=C3N)C2O[Si](C)(C)C(C)(C)C)c(=O)n(CCCNC(=O)C2CCCN2C(=O)C(NC(=O)C2CCCN2C(=O)C(NC(=O)OCc2ccccc2)C(C)C)C(C)C)c1=O (stereo not drawn) [CAM-466, Z-Val-Pro-Val-Pro-NAP-TSAO] | – | – | – | – | 0 | 0 | % conversion to parent compound by purified CD26, 1 h [1]: 0% |
| COc1cccc2c1C(=O)c1c(O)c3c(c(O)c1C2=O)CC(O)(C(=O)CO)CC3OC1CC(NC(=O)C2CCCN2C(=O)C(NC(=O)OCC2c3ccccc3-c3ccccc32)C(C)C)C(O)C(C)O1 (stereo not drawn) [CAM-468, Fmoc-Val-Pro-Doxorubicin] | – | – | – | no conversion | – | – | % conversion to parent compound by purified CD26, 1 h [4]: 0%; % conversion to parent compound by purified CD26, 4 h [5]: 0%; % conversion to parent compound by purified CD26, 24 h [6]: 0% |
| H-Gly-3.4Hypro-NAP-TSAO [CAM-465] | – | 0 | 0 | – | – | – | – |
| Cc1cn(C2OC(CO[Si](C)(C)C(C)(C)C)C3(OS(=O)(=O)C=C3N)C2O[Si](C)(C)C(C)(C)C)c(=O)n(CCCNC(=O)[C@@H](NC(=O)OCc2ccccc2)C(C)C)c1=O (stereo partly drawn) [CAM-404, Z-Val-NAP-TSAO] | 0 | 0 | 0 | – | – | – | – |
| H-Val-Pro-Val-NHP-TSAO [CAM-411] | 33 | 60 | – | – | – | – | – |
| COc1cccc2c1C(=O)c1c(O)c3c(c(O)c1C2=O)CC(O)(C(=O)CO)CC3OC1CC(NC(=O)C2CCCN2C(=O)C(N)C(C)C)C(O)C(C)O1 (stereo not drawn) [CAM-469, H-Val-Pro-Doxorubicin] | – | – | – | very efficiently converted | – | – | % conversion to parent compound by purified CD26, 1 h [4]: 78%; % conversion to parent compound by purified CD26, 4 h [5]: 95%; % conversion to parent compound by purified CD26, 24 h [6]: 97% |
| Cc1cn(C2OC(CO[Si](C)(C)C(C)(C)C)C3(OS(=O)(=O)C=C3N)C2O[Si](C)(C)C(C)(C)C)c(=O)n(CCCNC(=O)[C@@H]2CC(O)CN2C(=O)[C@@H](N)C(C)C)c1=O (stereo partly drawn) [CAM-163, H-Val-4HyPro-NAP-TSAO] | 4.1 | 18 | 53 | – | – | – | – |
| CC(C)[C@H](N)C(=O)N1CCC[C@H]1C(=O)Nc1ccc2ncccc2c1 [CAM-475, H-Val-Pro-6-Aminoquinoline] | – | – | – | complete conversion within 1 hr | – | – | % conversion to parent compound by purified CD26, 1 h [4]: 99%; % conversion to parent compound by purified CD26, 4 h [5]: 100%; % conversion to parent compound by purified CD26, 24 h [6]: 100% |
